# In patent US20260285850A1, “SUBSTITUTED OXAZOLIDINONES AND IMIDAZOLINONES AS HERBICIDES” (FMC CORPORATION, priority 2023, published 2026):
# How the values were obtained:
# Type in all cases: in vivo
# soybean (Glycine max) [1] = assay: Test A preemergence soil spray, visual injury rating 0-100; conditions: 10 days, 0 = no effect, 100 = complete control
# Summary of the method: (§1)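 Loam-sand pots got test material in surfactant-containing solvent, either as a directed soil spray before emergence or on plants at the one- to two-leaf stage. Visual injury (0-100) was read after ten greenhouse days.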
# [2] = test system: ryegrass, Italian (italian ryegrass, Lolium multiflorum); assay: as above; conditions: 10 days, 0 = no effect, 100 = complete control
# Summary of the method: as §1
# [3] = test system: ragweed (common ragweed, Ambrosia artemisiifolia); assay: as above; conditions: 10 days, 0 = no effect, 100 = complete control
# Summary of the method: as §1
# [4] = test system: wheat (Triticum aestivum); assay: as above; conditions: 10 days, 0 = no effect, 100 = complete control
# Summary of the method: as §1
# [5] = test system: blackgrass (Alopecurus myosuroides); assay: as above; conditions: 10 days, 0 = no effect, 100 = complete control
# Summary of the method: as §1
# kochia (Bassia scoparia) [6] = assay: as above; conditions: 10 days, 0 = no effect, 100 = complete control
# Summary of the method: as §1
# [7] = test system: palmer (palmer amaranth, palmer pigweed, Amaranthus palmeri); assay: as above; conditions: 10 days, 0 = no effect, 100 = complete control
# Summary of the method: as §1
# [8] = test system: oat, wild (wild oat, Avena fatua); assay: as above; conditions: 10 days, 0 = no effect, 100 = complete control
# Summary of the method: as §1
# corn (Zea mays) [9] = assay: as above; conditions: 10 days, 0 = no effect, 100 = complete control
# Summary of the method: as §1
# [10] = test system: barnyardgrass (Echinochloa crus-galli); assay: as above; conditions: 10 days, 0 = no effect, 100 = complete control
# Summary of the method: as §1
# rice (Oryza sativa) = assay: Test B flooded paddy test, visual plant response rating 0-100; conditions: 250 g ai/ha, Flood, applied to paddy water, evaluated after 13 days
# Summary of the method: (§2)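 Visual evaluation after 13 days. Water-applied treatment, 3 cm flood depth held constant, plants at 2-leaf stage at treatment.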
# [11] = test system: barnyardgrass (Echinochloa crusgalli); assay: as above; conditions: 250 g ai/ha, Flood, applied to paddy water, evaluated after 13 days
# Summary of the method: as §2
# [12] = test system: sedge, umbrella (small-flower umbrella sedge, Cyperus difformis); assay: as above; conditions: 250 g ai/ha, Flood, applied to paddy water, evaluated after 13 days
# Summary of the method: as §2
# [13] = test system: ducksalad (Heteranthera limosa); assay: as above; conditions: 250 g ai/ha, Flood, applied to paddy water, evaluated after 13 days
# Summary of the method: as §2
# soybean (Glycine max) [14] = assay: Test A postemergence application, visual injury rating 0-100; conditions: Postemergence
# Summary of the method: as §1
# [15] = test system: ryegrass, Italian (italian ryegrass, Lolium multiflorum); assay: as above; conditions: Postemergence
# Summary of the method: as §1
# [16] = test system: ragweed (common ragweed, Ambrosia artemisiifolia); assay: as above; conditions: Postemergence
# Summary of the method: as §1
# [17] = test system: wheat (Triticum aestivum); assay: as above; conditions: Postemergence
# Summary of the method: as §1
# [18] = test system: blackgrass (Alopecurus myosuroides); assay: as above; conditions: Postemergence
# Summary of the method: as §1
# kochia (Bassia scoparia) [19] = assay: as above; conditions: Postemergence
# Summary of the method: as §1
# [20] = test system: palmer (palmer amaranth, palmer pigweed, Amaranthus palmeri); assay: as above; conditions: Postemergence
# Summary of the method: as §1
# [21] = test system: horseweed (Erigeron canadensis); assay: as above; conditions: Postemergence
# Summary of the method: as §1
# [22] = test system: oat, wild (wild oat, Avena fatua); assay: as above; conditions: Postemergence
# Summary of the method: as §1
# [23] = test system: galium (catchweed bedstraw, Galium aparine); assay: as above; conditions: Postemergence
# Summary of the method: as §1
# corn (Zea mays) [24] = assay: as above; conditions: Postemergence
# Summary of the method: as §1
# [25] = test system: barnyardgrass (Echinochloa crus-galli); assay: as above; conditions: Postemergence
# Summary of the method: as §1
# [26] = 31 g ai/ha, greenhouse 10 days, 0 no effect, 100 complete control
# [27] = 125 g ai/ha, 10 days, 0 is no effect, 100 is complete control
structure (smiles),measurement,setting,value
CC1(C(=O)NC2CC=C(C(=O)OCC(F)(F)F)C2)CN(c2cc(Cl)cc(Cl)c2)C(=O)O1 (stereo not drawn) [Compound 71],Soybean plant response rating (0-100),soybean (Glycine max) [1]; 31 g ai/ha,10
same,Soybean plant response rating (0 to 100 scale),soybean (Glycine max) [1]; 125 g ai/ha,70
same,"Ryegrass, Italian plant response rating (0-100)",[2]; 31 g ai/ha,40
same,"Ryegrass, Italian plant response rating (0 to 100 scale)",[2]; 125 g ai/ha,70
same,Ragweed plant response rating (0-100),[3]; 31 g ai/ha,0
same,Ragweed plant response rating (0 to 100 scale),[3]; 125 g ai/ha,30
same,Wheat plant response rating (0-100),[4]; 31 g ai/ha,60
same,Wheat plant response rating (0 to 100 scale),[4]; 125 g ai/ha,90
same,Blackgrass plant response rating (0-100),[5]; 31 g ai/ha,0
same,Blackgrass plant response rating (0 to 100 scale),[5]; 125 g ai/ha,50
same,Kochia plant response rating (0-100),kochia (Bassia scoparia) [6]; 31 g ai/ha,70
same,Kochia plant response rating (0 to 100 scale),kochia (Bassia scoparia) [6]; 125 g ai/ha,90
same,"Amaranth, Palmer plant response rating (0-100)",[7]; 31 g ai/ha,90
same,"Amaranth, Palmer plant response rating (0 to 100 scale)",[7]; 125 g ai/ha,100
same,"Oat, Wild plant response rating (0-100)",[8]; 31 g ai/ha,20
same,"Oat, Wild plant response rating (0 to 100 scale)",[8]; 125 g ai/ha,30
same,Corn plant response rating (0-100),corn (Zea mays) [9]; 31 g ai/ha,30
same,Corn plant response rating (0 to 100 scale),corn (Zea mays) [9]; 125 g ai/ha,50
same,Barnyardgrass plant response rating (0-100),[10]; 31 g ai/ha,50
same,Barnyardgrass plant response rating (0 to 100 scale),[10]; 125 g ai/ha,90
same,"Plant response rating, Rice (0 to 100 scale, 0 is no effect and 100 is complete control)",rice (Oryza sativa),85
same,"Plant response rating, Barnyardgrass (0 to 100 scale, 0 is no effect and 100 is complete control)",[11],80
same,"Plant response rating, Sedge, Umbrella (0 to 100 scale, 0 is no effect and 100 is complete control)",[12],100
same,"Plant response rating, Ducksalad (0 to 100 scale, 0 is no effect and 100 is complete control)",[13],70
same,Soybean plant response rating (0 to 100 scale),soybean (Glycine max) [14]; [26],70
same,Soybean plant response rating (0 to 100 scale),soybean (Glycine max) [14]; [27],90
same,"Ryegrass, Italian plant response rating (0 to 100 scale)",[15]; [26],60
same,"Ryegrass, Italian plant response rating (0 to 100 scale)",[15]; [27],70
same,Ragweed plant response rating (0 to 100 scale),[16]; [26],60
same,Ragweed plant response rating (0 to 100 scale),[16]; [27],60
same,Wheat plant response rating (0 to 100 scale),[17]; [26],80
same,Wheat plant response rating (0 to 100 scale),[17]; [27],90
same,Blackgrass plant response rating (0 to 100 scale),[18]; [26],80
same,Blackgrass plant response rating (0 to 100 scale),[18]; [27],90
same,Kochia plant response rating (0 to 100 scale),kochia (Bassia scoparia) [19]; [26],80
same,Kochia plant response rating (0 to 100 scale),kochia (Bassia scoparia) [19]; [27],90
same,"Amaranth, Palmer / Pigweed, Palmer plant response rating (0 to 100 scale)",[20]; [26],90
same,"Amaranth, Palmer / Pigweed, Palmer plant response rating (0 to 100 scale)",[20]; [27],90
same,Horseweed plant response rating (0 to 100 scale),[21]; [26],10
same,Horseweed plant response rating (0 to 100 scale),[21]; [27],70
same,"Oat, Wild plant response rating (0 to 100 scale)",[22]; [26],40
same,"Oat, Wild plant response rating (0 to 100 scale)",[22]; [27],90
same,Galium plant response rating (0 to 100 scale),[23]; [26],80
same,Galium plant response rating (0 to 100 scale),[23]; [27],80
same,Corn plant response rating (0 to 100 scale),corn (Zea mays) [24]; [26],100
same,Corn plant response rating (0 to 100 scale),corn (Zea mays) [24]; [27],100
same,Barnyardgrass plant response rating (0 to 100 scale),[25]; [26],90
same,Barnyardgrass plant response rating (0 to 100 scale),[25]; [27],90
